# Laboratory results from patent publication US9155765B2, “Establishment of patient- or person-specific cardiac myocyte cell lines from human induced pluripotent stem cells (iPSCs)” (Baylor Research Institute, priority 2011, dated 2015).
# System: derived cardiac cell line
# Assay: Effect of hypertrophy inducing drugs on derived cardiac cell line (cell size change)
# Type: cell-based, human
# Settings: 24 hrs after drug administration; phase-contrast images before and after (FIG. 8)
# Description: The effect of hypertrophy inducing drugs on derived cardiac cell line was tested. A response to cardiac toxic reagents is important in evaluating the properties of derived cardiac cell line and the future usage of the cells for testing cardiac toxic reagents as well as the mechanistic study on cardiomyopathy. Tumor necrosis factor (TNF)-α was used for the induction and compared the cell size changes at 24 hrs after drug administration.
substance,measurement,value
Tumor necrosis factor (TNF)-α [TNF-α],cell size changes,increase in the sizes of treated cardiac cells
